Experimental data reported in patent US10098351B2, “Herbicidal compounds” (SYNGENTA PARTICIPATIONS AG, priority 2014, dated 2018).

Tests used:
Assay type in all cases: in vivo
[1] = tested on: Abutilon theophrasti; assay: Pre-emergence herbicidal activity, ABUTH; conditions: application pre-emergence, 1000 g/Ha, evaluated after 13 days; 5=total damage to plant, 0=no damage to plant
Method: (§1) Seeds of a variety of test species were sown in standard soil in pots. After cultivation for one day (pre-emergence) under controlled conditions in a glasshouse (at 24/16° C., day/night; 14 hours light; 65% humidity), the plants were sprayed with an aqueous spray solution derived from the formulation of the technical active ingredient in acetone/water (50:50) solution containing 0.5% Tween 20 (polyoxyethelyene sorbitan monolaurate, CAS RN 9005-64-5). The test plants were then grown in a glasshouse under controlled conditions (at 24/16° C., day/night; 14 hours light; 65% humidity) and watered twice daily. After 13 days, the test was evaluated (5=total damage to plant; 0=no damage to plant).

[2] = tested on: Amaranthus retroflexus; assay: Pre-emergence herbicidal activity, AMARE; conditions: application pre-emergence, 1000 g/Ha, evaluated after 13 days; 5=total damage to plant, 0=no damage to plant
Method: as §1

[3] = tested on: Lolium perenne; assay: Pre-emergence herbicidal activity, LOLPE; conditions: application pre-emergence, 1000 g/Ha, evaluated after 13 days; 5=total damage to plant, 0=no damage to plant
Method: as §1

[4] = tested on: Setaria faberi; assay: Pre-emergence herbicidal activity, SETFA; conditions: application pre-emergence, 1000 g/Ha, evaluated after 13 days; 5=total damage to plant, 0=no damage to plant
Method: as §1

[5] = tested on: Echinochloa crus-galli; assay: Pre-emergence herbicidal activity, ECHCG; conditions: application pre-emergence, 1000 g/Ha, evaluated after 13 days; 5=total damage to plant, 0=no damage to plant
Method: as §1

[6] = tested on: Zea mays; assay: Pre-emergence herbicidal activity, ZEAMX; conditions: application pre-emergence, 1000 g/Ha, evaluated after 13 days; 5=total damage to plant, 0=no damage to plant
Method: as §1

[7] = tested on: Abutilon theophrasti; assay: Post-emergence herbicidal activity, ABUTH; conditions: application post-emergence, 1000 g/Ha, evaluated after 13 days; 5=total damage to plant, 0=no damage to plant
Method: (§2) Seeds of a variety of test species were sown in standard soil in pots. After 8 days cultivation (post-emergence) under controlled conditions in a glasshouse (at 24/16° C., day/night; 14 hours light; 65% humidity), the plants were sprayed with an aqueous spray solution derived from the formulation of the technical active ingredient in acetone/water (50:50) solution containing 0.5% Tween 20 (polyoxyethelyene sorbitan monolaurate, CAS RN 9005-64-5). The test plants were then grown in a glasshouse under controlled conditions (at 24/16° C., day/night; 14 hours light; 65% humidity) and watered twice daily. After 13 days, the test was evaluated (5=total damage to plant; 0=no damage to plant).

[8] = tested on: Amaranthus retroflexus; assay: Post-emergence herbicidal activity, AMARE; conditions: application post-emergence, 1000 g/Ha, evaluated after 13 days; 5=total damage to plant, 0=no damage to plant
Method: as §2

[9] = tested on: Lolium perenne; assay: Post-emergence herbicidal activity, LOLPE; conditions: application post-emergence, 1000 g/Ha, evaluated after 13 days; 5=total damage to plant, 0=no damage to plant
Method: as §2

[10] = tested on: Setaria faberi; assay: Post-emergence herbicidal activity, SETFA; conditions: application post-emergence, 1000 g/Ha, evaluated after 13 days; 5=total damage to plant, 0=no damage to plant
Method: as §2

[11] = tested on: Echinochloa crus-galli; assay: Post-emergence herbicidal activity, ECHCG; conditions: application post-emergence, 1000 g/Ha, evaluated after 13 days; 5=total damage to plant, 0=no damage to plant
Method: as §2

[12] = tested on: Zea mays; assay: Post-emergence herbicidal activity, ZEAMX; conditions: application post-emergence, 1000 g/Ha, evaluated after 13 days; 5=total damage to plant, 0=no damage to plant
Method: as §2

SMILES	ABUTH damage score [1]	AMARE damage score [2]	LOLPE damage score [3]	SETFA damage score [4]	ECHCG damage score [5]	ZEAMX damage score [6]	ABUTH damage score [7]	AMARE damage score [8]	LOLPE damage score [9]	SETFA damage score [10]	ECHCG damage score [11]	ZEAMX damage score [12]
CON1C(=O)N(c2ncc(C(F)(F)F)s2)C(O)C1C (centres unmarked) [Compound B7]	5	5	4	5	4	3	5	5	5	5	5	4
COC1C(O)N(c2ncc(C(F)(F)F)s2)C(=O)N1C (centres unmarked) [Compound A3]	5	5	5	5	5	2	5	5	5	5	5	4
CCCOC1C(O)N(c2ncc(C(F)(F)F)s2)C(=O)N1C (centres unmarked) [Compound A1]	5	5	4	4	5	1	5	5	5	5	5	3
CN1CC(O)N(c2ncc(C(C)(C)C)s2)C1=O (centres unmarked) [Compound A7]	5	5	4	5	4	3	5	5	5	5	5	5
CN1C(=O)N(c2ncc(C(F)(F)F)s2)C(O)C1O (centres unmarked) [Compound A4, 4,5-dihydroxy-1-methyl-3-[5-(trifluoromethyl)thiazol-2-yl]imidazolidin-2-one]	5	5	4	4	5	3	5	5	5	5	5	4
CCOC1C(O)N(c2ncc(C(F)(F)F)s2)C(=O)N1C (centres unmarked) [Compound A2, 5-ethoxy-4-hydroxy-1-methyl-3-[5-(trifluoromethyl)thiazol-2-yl]imidazolidin-2-one]	5	5	5	5	5	3	5	5	5	5	5	5
CCO[C@H]1C(O)N(c2ncc(C(F)(F)F)s2)C(=O)N1C (some centres unmarked) [Compound A9]	2	5	2	4	1	1	3	5	3	4	2	2
CN1CC(O)N(c2ncc(C(F)(F)F)s2)C1=O (centres unmarked) [Compound A5, 4-hydroxy-1-methyl-3-[5-(trifluoromethyl)thiazol-2-yl]imidazolidin-2-one]	5	5	5	5	4	2	5	5	5	5	5	5
CCO[C@@H]1C(O)N(c2ncc(C(F)(F)F)s2)C(=O)N1C (some centres unmarked) [Compound A8]	5	5	4	5	5	3	5	5	5	5	5	5
CCOC1C(O)N(c2ncc(C(C)C)s2)C(=O)N1C (centres unmarked) [Compound A10]	0	4	0	0	0	0	4	3	–	2	2	0
C[C@@H]1C(O)N(c2ncc(C(F)(F)F)s2)C(=O)N1C (mixture of isomers) [Compound A6]	5	5	5	5	5	4	5	5	5	5	5	5
